Values quoted from earlier work as cited in patent publication US6558704B1, “Process for preparing pellets containing up to 90 wt.% of a pharmaceutical active ingredient” (Gruenenthal GmbH, priority 1999, dated 2003).
Structures can show the parent of a compound that is named as a salt.

Row | SMILES | solubility in water [mg/mL]
1 | CN(C)CCCN1c2ccccc2Sc2ccc(Cl)cc21 [chlorpromazine hydrochloride] | 2500
2 | Cc1c(N(C)CS(=O)(=O)[O-])c(=O)n(-c2ccccc2)n1C.[Na+] [metamizol-Na] | > 1000
